We go through 34 molecules from patent US11420934B2, “PPAR agonists” (Salk Institute for Biological Studies, priority 2013, dated 2022).

The test system of data set [1] is AKO mice. The experiment in a line: GW treatment in mouse model of ALD (AKO mice). In kind it is in vivo. From the text:
ALD is a rare genetic disorder caused by defects in peroxisomal oxidation of very long-chain fatty acids (VLCFAs), resulting in systemic accumulation of VLCFAs, which causes tissue defects mainly in the central nervous system and the adrenal glands. The majority of VLCFAs in the body are endogenously synthesized from long-chain fatty acids (LCFAs). Therefore, one potential way to prevent VLCFA accumulation in ALD is by inducing mitochondrial LCFA oxidation to reduce the availability of LCFAs for VLCFA biosynthesis. In order to test this, a previously described mouse model of ALD was used, in which the X-linked adrenoleukodystrophy gene abcd1 was systemically ablated and the knockout (AKO) mice faithfully recapitulated the abnormal VLCFA accumulation phenotype seen in ALD patients.
3-month-old AKO mice were treated with or without GW and their tissues collected for free FA analysis using GC/MS.

Data set [2] addresses T1, PPARδ (Homo sapiens, UniProt Q03181).
T1 construct: expressed in transfected cells; host or cells: PathHunter NHR cell lines
T1 sequence (Q03181 1-441): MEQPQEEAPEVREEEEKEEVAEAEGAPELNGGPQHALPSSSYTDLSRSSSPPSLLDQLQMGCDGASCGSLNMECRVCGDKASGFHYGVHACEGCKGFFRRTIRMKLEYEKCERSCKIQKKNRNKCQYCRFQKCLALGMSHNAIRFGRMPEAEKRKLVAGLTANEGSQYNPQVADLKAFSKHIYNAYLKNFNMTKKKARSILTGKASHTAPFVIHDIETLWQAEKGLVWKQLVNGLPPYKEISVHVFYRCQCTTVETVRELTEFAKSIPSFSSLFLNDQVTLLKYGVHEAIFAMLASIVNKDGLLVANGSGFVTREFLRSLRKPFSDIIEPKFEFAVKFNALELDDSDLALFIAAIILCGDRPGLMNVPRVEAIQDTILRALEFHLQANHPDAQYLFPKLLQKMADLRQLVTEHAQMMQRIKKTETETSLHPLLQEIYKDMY
The experiment in a line: Nuclear Hormone Receptor (NHR) protein interaction assay (PathHunter), agonist format. In kind it is cell-based. The procedure:
PathHunter NHR cell lines were expanded from freezer stocks according to standard procedures. Cells were seeded in a total volume of 20 μL into white walled, 384-well microplates and incubated at 37° C. for the appropriate time prior to testing. Assay media contained charcoal-dextran filtered serum to reduce the level of hormones present.
For agonist determination, cells were incubated with sample to induce response. Intermediate dilution of sample stocks was performed to generate 5× sample in assay buffer. 5 μL of 5× sample was added to cells and incubated at 37° C. or room temperature for 3-16 hours. Final assay vehicle concentration was 1%.
Microplates were read following signal generation with a PerkinElmer Envision™ instrument for chemiluminescent signal detection.
Compound activity was analyzed using CBIS data analysis suite (ChemInnovation, CA). For agonist mode assays, percentage activity was calculated using the following formula: % Activity=100%×(mean RLU of test sample−mean RLU of vehicle control)/(mean MAX control ligand−mean RLU of vehicle control).

Data set [3] is described as follows: Pharmacokinetics in CD-1 mice. In kind it is in vivo. The procedure:
(§1) In this example, the PK profile of several PPARδ agonists disclosed herein in male CD-1 mice or Wistar rats was determined. Similar methods can be used to analyze other compounds provided herein.
(§2) (quantity sufficient i.e. made up to a final volume of 100% with water). All compounds were separately administered to CD-1 mice at 3 mg/kg iv or 10 mg/kg po.
(§3) The concentration of the compound in plasma was determined, as illustrated in FIGS. 9A-9E.

Data set [4] can be described thus: Pharmacokinetics in Wistar rats. The note with it: male Wistar rats. In kind it is in vivo. The procedure:
as §1, §2, §3

Data set [5] is classed as in vitro ADME.
Data set [6] has as its system thermal injury to the TA. Put plainly: Muscle regeneration after thermal (freeze burn) injury to the TA, oral GW501516. In kind it is in vivo, C57BL6J mice. The procedure: A stainless steel […] (Mettler-Toledo) equilibrated to the temperature of dry ice was placed directly on the exposed TA for 10 seconds. Following the thermal injury, incision was closed using VetBond (3M). All injury procedures were performed on the left leg, and the right leg was used as control.
Sterile 1% w/v Evans Blue dye in PBS was intraperitoneally injected at 1% volume relative to the body mass of an animal. 7 hours after the injection, injured TA muscles were harvested and snap-frozen by isopentane quenching in liquid nitrogen. Frozen sections were cut in 10 μm thickness, fixed in ice-cold acetone, dipped in xylene and mounted with DPX. Proportion of the stained area over the total area was measured using ImageJ software.
50 mg/kg body weight of BrdU (Sigma) was injected intraperitoneally as solution of 10 mg/mL BrdU in saline. TA muscles were harvested at 7 days after injury and processed for paraffin sections as described above. BrdU incorporation was visualized using the BrdU Labeling and Detection Kit I (Roche) and BrdU+ nuclei were counted and represented as a proportion of total nuclei in a field.
Whole or partial tissues were homogenized by Polytron probe homogenizer in Trizol reagent (Invitrogen). Total RNA was extracted from the homogenates according to the manufacturer's protocol. 1 μg of DNase-treated total RNA was reverse transcribed using Superscript II Reverse Transcriptase (Invitrogen) according to the manufacturer's instructions. cDNAs were diluted 1/40 with ddH2O and used as templates in RT-QPCR reactions with SYBRGreenER qPCR SuperMix detection system (Invitrogen). Samples were prepared in technical triplicates and relative mRNA levels were calculated by using the standard curve methodology and normalized against GAPDH mRNA levels in the same samples.

For data set [7], the system named is FGF1a promoter. The experiment in a line: Luciferase reporter assay of FGF1a promoter co-transfected with PPARδ. The note with it: with ligand. In kind it is cell-based. For orientation: Reporter assays use an easily measured gene product as a stand-in for the process of interest.
Setting [8] is: Tables 7-16, read-out: NHR protein interaction assay, EC50 (nM) for PPARδ.

The structures appear in SMILES notation. Read-outs that look alike come from different tables or passages of the source.

By EC50 is commonly meant the concentration needed to bring the measured effect to its halfway point.

Take `Cc1cc(SCc2sc(-c3ccc(C(F)(F)F)cc3)nc2C)ccc1OCC(=O)O` [GW]: in data set [1] (8 weeks of GW treatment), the “liver C26:0” value is recorded as “cleared in most GW-treated animals”. In data set [1] (8 weeks of GW treatment, GC/MS), the “levels of VLCFAs (C22:0, C23:0, C24:0, C26:0) in AKO brain and liver” value is recorded as “significantly reduced”. For the same molecule, in data set [1] (GW treatment), the “expression of mitochondrial FA oxidation genes (Cpt1a, 1b, Slc25a20, Acadl) in AKO liver and skeletal muscle” value is on record as “dramatically induced”; the “saturated LCFAs C12:0 to C22:0 and total FAs in liver and muscle” value is listed as “significantly reduced”.

Consider `CC(C)N(Cc1ccccc1OCCCCCC(=O)O)C(=O)c1ccc(N2CCCC2)cc1` [compound 136], for which the EC50 in data set [2] (setting [8]) amounted to 352 nM.

`O=C(O)CCCCCOc1ccccc1CN(CC(F)(F)F)C(=O)c1ccc(-c2ccco2)cc1` [compound 177] yielded an EC50 in data set [2] of 12.1 nM.

For the molecule `CC(=O)c1ccc(C(=O)N(Cc2ccccc2OCCCCCC(=O)O)C(C)C)cc1` [compound 129], the EC50 in data set [2] (setting [8]) stood at 5070 nM.

As to `CC(C)N(Cc1ccccc1OCCCCCC(=O)O)C(=O)c1ccc(S(C)(=O)=O)cc1` [compound 130], in data set [2], the EC50 was over 10000 nM.

For `CC(C)N(Cc1ccc(-c2ccco2)cc1)C(=O)c1ccccc1OCCCCCC(=O)O` [compound 157], the EC50 in data set [2] was over 10000 nM.

In data set [2], `CC(C)N(Cc1cc(C#N)ccc1OCCCCCC(=O)O)C(=O)c1ccc(-c2ccco2)cc1` [compound 205] gave an EC50 of 224 nM.

For the molecule `CN(Cc1ccccc1OCCCCCC(=O)O)C(=O)c1ccc(C#CC2CC2)cc1` [compound 248], the EC50 in data set [2] (setting [8]) worked out at 21.1 nM.

In the case of `CC(C)N(Cc1ccccc1OCCCCCC(=O)O)C(=O)c1ccc(OC(F)(F)F)cc1` [compound 127], the EC50 in data set [2] (setting [8]) stood at 44.6 nM.

In data set [2], `CC(C)N(C(=O)Cc1ccccc1OCCCCCC(=O)O)c1ccc(-c2ccco2)cc1` [compound 158] showed an EC50 of over 10000 nM.

`CC(C)N(Cc1ccccc1OCCCCCC(=O)O)C(=O)c1ccc(-c2ccco2)cn1` [compound 153] showed an EC50 in data set [2] of 206 nM.

As for `CC(C)N(Cc1ccccc1OCCCOCC(=O)O)C(=O)c1ccc(-c2ccco2)cc1` [compound 221], the EC50 in data set [2] came to 1300 nM.

In turn, `COCCN(Cc1ccccc1OCCCCCC(=O)O)C(=O)c1ccc(-c2ccco2)cc1` [compound 178] registered an EC50 in data set [2] of 79.4 nM.

Turning to `Cc1cc(SCc2sc(-c3ccc(C(F)(F)F)cc3)nc2C)ccc1OCC(=O)O` [GW501516], the Kel in data set [3] (3 mg/Kg i.v.) came out at 0.11 h⁻¹; in data set [4] (3 mg/Kg i.v.), 0.09 h⁻¹. The F in data set [3] (10 mg/Kg p.o.) is listed as 82.1%; in data set [4] (10 mg/Kg p.o.), about 100%. Further, the “% Parent remained at 15 min, MLM” value in data set [5] is 93/76%. Besides, the “% Parent remained at 60 min, MLM” value in data set [5] is recorded as 93/76%. For the same molecule, the “Evans Blue dye uptake, proportion of muscle cross sectional area (CSA) stained” value in data set [6] (5 mg/kg orally, 4 days prior to and 5 days after injury, 5 days after the injury, vehicle 7.6%) is listed as 4.9%. Moreover, in data set [6] (3 days after the injury), the “expression of inflammatory marker genes by QPCR” value is given as “significantly reduced”. Moreover, the “reduction in the proportion of stained area” value in data set [6] (5 days after the injury, versus vehicle) is listed as 34.7%. Besides, the “PPARδ target genes (PDK4, CPT1b, catalase) expression in TA by QPCR” value in data set [6] (9 day treatment) was “Up-regulation”. In data set [6] (after 9 days or 4 weeks of ligand treatment), the “number of quiescent satellite cells” value was “an increase in the number of quiescent satellite cells was not observed”. The “induction of FGF1a (luciferase reporter)” value in data set [7] is “induction of FGF1a”.

In data set [2], `CC(C)N(Cc1cccnc1OCCCCCC(=O)O)C(=O)c1ccc(-c2ccco2)cc1` [compound 207] displayed an EC50 of 19.4 nM.

Regarding `O=C(O)CCCCCOc1ccccc1CNC(=O)c1ccc(-c2ccco2)cc1` [compound 179], in data set [2], the EC50 came out at 485 nM.

Regarding `Cc1ccc(C(=O)N(Cc2ccccc2OCCCCCC(=O)O)C(C)C)cc1` [Compd 131], the EC50 in data set [2] (setting [8]) was determined as 1610 nM.

On to `CC(C)N(Cc1ccccc1OCCCCCC(=O)O)C(=O)c1cnc(-c2ccco2)s1` [compound 156], for which the half-maximal effective concentration (EC50) in data set [2] amounted to 143 nM.

Turning to `Cc1ccc(OCCCCCC(=O)O)c(CN(C(=O)c2ccc(-c3ccco3)cc2)C(C)C)c1` [compound 203], the EC50 in data set [2] (setting [8]) amounted to 7.1 nM.

Regarding `COc1ccc(C(=O)N(Cc2ccccc2OCCCCCC(=O)O)C(C)C)cc1` [compound 126], in data set [2] (setting [8]), the EC50 was 1300 nM.

`CC(C)N(Cc1ccccc1OCCCCCC(=O)O)C(=O)c1ccc(F)cc1` [compound 132]: the EC50 in data set [2] (setting [8]) was determined as 2180 nM.

Regarding `CC(C)N(Cc1ccccc1OCCCCCC(=O)O)C(=O)c1ccc(OC2CC2)cc1` [compound 134], the EC50 in data set [2] is over 10000 nM.

Take `COc1ccc(OCCCCCC(=O)O)c(CN(C(=O)c2ccc(-c3ccco3)cc2)C(C)C)c1` [compound 206]: in data set [2] (setting [8]), the EC50 came to 5.1 nM.

Consider `CC(C)N(Cc1ccccc1OCCCCCCC(=O)O)C(=O)c1ccc(-c2ccco2)cc1` [compound 220], for which the EC50 in data set [2] (setting [8]) came to 512 nM.

Turning to `O=C(O)CCCCCOc1ccccc1CN(Cc1ccccc1)C(=O)c1ccc(-c2ccco2)cc1` [compound 247], in data set [2] (setting [8]), the EC50 was determined as 18.8 nM.

In the case of `CC(C)N(Cc1ccccc1OCCCCc1nn[nH]n1)C(=O)c1ccc(-c2ccco2)cc1` [compound 219], in data set [2], the EC50 came out at 338 nM.

Regarding `CC(C)N(Cc1cc(F)ccc1OCCCCCC(=O)O)C(=O)c1ccc(-c2ccco2)cc1` [compound 204], in data set [2] (setting [8]), the EC50 was found to be 24.6 nM.

With `CC(C)N(Cc1ccccc1OCCCCCC(=O)O)C(=O)c1ccc(N(C)C)cc1` [Compd 128], the EC50 in data set [2] (setting [8]) is 5390 nM.

Regarding `CC(C)N(Cc1ccccc1OCCCCCC(=O)O)S(=O)(=O)c1ccc(-c2ccco2)cc1` [compound 152], the EC50 in data set [2] is over 10000 nM.

In the case of `CC(C)N(Cc1ccccc1OCCCCCC(=O)O)C(=O)c1ccc(Cl)cc1` [Compd 125], the EC50 in data set [2] (setting [8]) was 291 nM.

`CC(C)N(Cc1ccccc1OCCCCCC(=O)O)C(=O)c1ccc(-c2ccco2)nc1` [compound 155] had an EC50 in data set [2] of 26.1 nM.

For the molecule `CC(C)N(Cc1ccccc1OCCCCCC(=O)O)C(=O)c1ccc(C#N)cc1` [compound 151], the EC50 in data set [2] (setting [8]) stood at 894 nM.

As for `CC(C)N(Cc1ccccc1OCCCCCC(=O)O)C(=O)c1ccc(C#CC2CC2)cc1` [Compd 245], the EC50 in data set [2] (setting [8]) amounted to 10.5 nM.

As for `CC(C)N(Cc1cc(Br)ccc1OCCCCCC(=O)O)C(=O)c1ccc(-c2ccco2)cc1` [compound 202], in data set [2] (setting [8]), the EC50 stood at 7.3 nM.
